Experimental findings from the PolyMetriX glass transition set are described below.

The molecule `*C(=O)NCC(C)(C)CNC(=O)c1ncn(C)c1*` (repeat unit) gave a glass transition temperature of 152.00 °C.
Regarding `*C(=O)c1ccc(C(=O)N(*)c2ccccc2)cc1` (repeat unit), the glass transition temperature was found to be 179.00 °C.
In turn, `*C(=O)c1cccc(C(=O)N2CCN(*)CC2)c1` (repeat unit) displayed a glass transition temperature of 214.50 °C.
Then `*C(=O)c1ccccc1-c1ccccc1C(=O)N1CCN(*)CC1` (repeat unit), with 193.00 °C.
The molecule `*CC(*)OCCCCCCCCCCCOc1ccc(C(=O)Oc2ccc(C#N)cc2)cc1` (repeat unit) gave a glass transition temperature of 37.00 °C.
Then `*CC(*)OCCCCCCCCCCCOc1ccc(C(=O)Oc2ccc(OCC)cc2)cc1` (repeat unit), with 37.00 °C; and `*CC(*)OCCOc1ccc(/C=C(\C#N)C(=O)OC)cc1` (repeat unit), with 47.00 °C.
Regarding `*CC(*)O[N+](=O)[O-]` (repeat unit), the glass transition temperature was found to be 37.50 °C.
The molecule `*CC(*)P(=O)(c1ccccc1)c1ccccc1` (repeat unit) came in with a glass transition temperature of 127.50 °C.
The molecule `*CC(*)S(=O)(=O)c1ccccc1` (repeat unit) returned a glass transition temperature of 128.00 °C.
Then `*CC(*)[Si](C)(C)C` (repeat unit), with 137.00 °C; and `*CC(*)c1c(F)c(F)c(C(F)(F)F)c(F)c1F` (repeat unit), with 112.00 °C.
Then `*CC(*)c1c(F)c(F)c(OCC(F)(F)C(F)(F)C(F)(F)C(F)(F)C(F)(F)C(F)(F)C(F)(F)F)c(F)c1F` (repeat unit), with 21.00 °C.
The molecule `*CC(*)c1c(F)c(F)c(OCC(F)(F)C(F)(F)F)c(F)c1F` (repeat unit) gave a glass transition temperature of 61.00 °C.
For the molecule `*CC(*)c1c([2H])c([2H])c([2H])c([2H])c1[2H]` (repeat unit), the glass transition temperature was 100.00 °C.
As to `*CC(*)c1cc(-c2ccc(C(=O)OC3CC(C)CCC3C(C)C)cc2)ccc1-c1ccc(C(=O)OC2CC(C)CCC2C(C)C)cc1` (repeat unit), the glass transition temperature was found to be 217.50 °C.
On to `*CC(*)c1cc(Br)ccc1OCCC` (repeat unit), for which the glass transition temperature is 54.00 °C.
Then `*CC(*)c1cc(Br)ccc1OCCC(C)C` (repeat unit), with 37.00 °C; and `*CC(*)c1cc(C(=O)OCC)ccc1-c1ccc(OCCCCCCCC)cc1` (repeat unit), with 95.00 °C.
Regarding `*CC(*)c1cc(C)c(C)cc1C` (repeat unit), the glass transition temperature came out at 104.00 °C.
In turn, `*CC(*)c1cc(OC)c(O)c(OC)c1` (repeat unit) came in with a glass transition temperature of 147.00 °C.
As for `*CC(*)c1ccc(-c2ccc3c(c2)C(CCCCCC)(CCCCCC)c2cc(-c4ccc5c(c4)C(CCCCCC)(CCCCCC)c4ccccc4-5)ccc2-3)cc1` (repeat unit), the glass transition temperature is 78.60 °C.
As for `*CC(*)c1ccc(-c2ccc3c(c2)C(CCCCCC)(CCCCCC)c2ccccc2-3)cc1` (repeat unit), the figure is 81.2 °C; as for `*CC(*)c1ccc(B(O[Si](C)(C)C)O[Si](C)(C)C)cc1` (repeat unit), 84.00 °C; as for `*CC(*)c1ccc(B(Oc2ccc(B3OC(C)(C)C(C)(C)O3)c3cccnc23)c2ccc(C(C)(C)C)cc2)cc1` (repeat unit), 275.00 °C.
Then `*CC(*)c1ccc(C#N)cc1` (repeat unit), with 180.00 °C; and `*CC(*)c1ccc(C(=O)CCC)cc1` (repeat unit), with 74.00 °C; and `*CC(*)c1ccc(C(=O)CCCCC)cc1` (repeat unit), with 66.00 °C.
The molecule `*CC(*)c1ccc(C(=O)CCN2CCOCC2)cc1` (repeat unit) had a glass transition temperature of 41.00 °C.
Regarding `*CC(*)c1ccc(C(=O)N(CC)CC)cc1` (repeat unit), the glass transition temperature was found to be 102.00 °C.
`*CC(*)c1ccc(C(=O)N2CCOCC2)cc1` (repeat unit): the glass transition temperature came out at 127.00 °C.
As for `*CC(*)c1ccc(C(=O)OCCN(C)C)cc1` (repeat unit), the figure is 91.00 °C.
Then `*CC(*)c1ccc(C(C)(O)CC)cc1` (repeat unit), with 190.00 °C; and `*CC(*)c1ccc(C(C)(O)CCCCC)cc1` (repeat unit), with 100.00 °C.
Molecule `*CC(*)c1ccc(C(F)(F)C(F)(F)C(F)(F)C(F)(F)C(F)(F)C(F)(F)C(F)(F)F)cc1` (repeat unit) showed a glass transition temperature of 42.00 °C.
For `*CC(*)c1ccc(C(O)CCN2CCOCC2)cc1` (repeat unit), the glass transition temperature turned out to be 50.00 °C.
As for `*CC(*)c1ccc([CH]([Sn]([CH3])([CH3])[CH3])[Sn]([CH3])([CH3])[CH3])cc1` (repeat unit), the glass transition temperature was found to be 140.00 °C.
`*CC(*)c1ccc(CCC(F)(F)C(F)(F)C(F)(F)C(F)(F)F)cc1` (repeat unit) came in with a glass transition temperature of 23.00 °C.
`*CC(*)c1ccc(CCCCCCCCCCCCCC)cc1` (repeat unit): the glass transition temperature is -36.00 °C.
Molecule `*CC(*)c1ccc(CCCCCCCCCCCCCCCC)cc1` (repeat unit) showed a glass transition temperature of 4.50 °C.
In the case of `*CC(*)c1ccc(COC(C)CC)cc1` (repeat unit), the glass transition temperature stood at 40.00 °C.
`*CC(*)c1ccc(COCCC(F)(F)C(F)(F)C(F)(F)C(F)(F)C(F)(F)C(F)(F)C(F)(F)C(F)(F)F)cc1` (repeat unit): the glass transition temperature amounted to 55.00 °C.
Consider `*CC(*)c1ccc(COCCCCO)cc1` (repeat unit), for which the glass transition temperature came to 20.00 °C.
Then `*CC(*)c1ccc(Cl)c(Cl)c1` (repeat unit), with 128.00 °C.
On to `*CC(*)c1ccc(Cn2c3ccccc3c3ccccc32)cc1` (repeat unit), for which the glass transition temperature was 166.00 °C.
Regarding `*CC(*)c1ccc(N(c2ccccc2)c2ccccc2)cc1` (repeat unit), the glass transition temperature stood at 123.50 °C.
`*CC(*)c1ccc(OC(C)=O)c(OC)c1` (repeat unit): the glass transition temperature was 115.00 °C.
Then `*CC(*)c1ccc(OCCC(C)C)cc1` (repeat unit), with 57.00 °C; and `*CC(*)c1ccc(OP2(OCCOCCOCCOC)=NP(OCCOCCOCCOC)(OCCOCCOCCOC)=NP(OCCOCCOCCOC)(OCCOCCOCCOC)=N2)cc1` (repeat unit), with -46.00 °C; and `*CC(*)c1ccc([Si](C)(C)O)cc1` (repeat unit), with 147.00 °C.
`*CC(*)c1ccc([Si](C)(C)O[Si](C)(C)C)cc1` (repeat unit) registered a glass transition temperature of 35.50 °C.
Then `*CCCCCCN(CC(F)(F)C(F)(F)F)C(=O)C(F)(F)C(F)(F)C(F)(F)C(=O)N(*)CC(F)(F)C(F)(F)F` (repeat unit), with 174.00 °C.
In turn, `*CCCCCCOc1ccc(C(=O)N(C(=O)c2ccc(O*)cc2)c2cccc3ccccc23)cc1` (repeat unit) showed a glass transition temperature of 56.00 °C.
On to `*CCCCCCOc1ccc(C(=O)N(C(=O)c2ccc(O*)cc2)c2ccccc2)cc1` (repeat unit), for which the glass transition temperature turned out to be 100.00 °C.
